# Assay results from publication PMC10283505, “CVM-1118 (foslinanib), a 2-phenyl-4-quinolone derivative, promotes apoptosis and inhibits vasculogenic mimicry via targeting TRAP1” (Pathology and Oncology Research, 2023).
# Values joined by “and” are separate entries in the source; they are usually repeats but may differ in a detail not shown here. Equal values may be shown once.
# Assays:
# HT29 = experiment: NCI 60 cytotoxicity screening; type: cell-based; conditions: Homo sapiens, HT-29; HT29, Colon
# Catenin β-1 = target: T1, Catenin β-1 (Homo sapiens, UniProt P35222); experiment: Surface plasmon resonance (Biacore); type: binding; conditions: Catenin β-1, SPR
# T1 sequence (P35222 1-781): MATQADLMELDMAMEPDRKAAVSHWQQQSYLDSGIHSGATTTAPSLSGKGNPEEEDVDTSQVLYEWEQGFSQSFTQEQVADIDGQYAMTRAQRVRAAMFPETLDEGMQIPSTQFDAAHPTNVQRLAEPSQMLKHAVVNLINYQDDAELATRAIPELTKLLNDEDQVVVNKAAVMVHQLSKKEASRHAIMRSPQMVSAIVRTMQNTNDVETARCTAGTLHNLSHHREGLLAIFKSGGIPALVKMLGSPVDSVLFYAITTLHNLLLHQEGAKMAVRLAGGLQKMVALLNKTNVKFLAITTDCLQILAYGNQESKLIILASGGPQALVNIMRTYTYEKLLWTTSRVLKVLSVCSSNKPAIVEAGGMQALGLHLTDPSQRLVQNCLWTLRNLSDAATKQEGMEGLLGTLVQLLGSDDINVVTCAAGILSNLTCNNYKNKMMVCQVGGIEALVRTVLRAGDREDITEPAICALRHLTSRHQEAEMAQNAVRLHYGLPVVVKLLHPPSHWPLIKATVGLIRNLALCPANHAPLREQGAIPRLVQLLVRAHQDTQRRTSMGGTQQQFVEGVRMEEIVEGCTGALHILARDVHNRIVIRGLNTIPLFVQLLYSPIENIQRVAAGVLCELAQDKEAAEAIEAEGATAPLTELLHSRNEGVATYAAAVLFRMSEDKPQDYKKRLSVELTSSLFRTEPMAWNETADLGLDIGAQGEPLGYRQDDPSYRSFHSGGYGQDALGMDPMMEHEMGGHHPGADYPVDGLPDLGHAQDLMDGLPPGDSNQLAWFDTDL
# GADD45GIP1 = GADD45GIP1 (Homo sapiens, UniProt Q8TAE8); experiment: Surface plasmon resonance (Biacore); type: binding; conditions: GADD45GIP1, SPR
# Integrin beta-2 (CD18) = Integrin beta-2 (CD18) (Homo sapiens, UniProt P05107); experiment: Surface plasmon resonance (Biacore); type: binding; conditions: CD18, SPR
# PC-3 = experiment: NCI 60 cytotoxicity screening; type: cell-based; conditions: Homo sapiens; PC-3, Prostate
# CEACAM5 = target: T2, CEACAM5 (Homo sapiens, UniProt P06731); experiment: Surface plasmon resonance (Biacore); type: binding; conditions: CEACAM5, SPR
# T2 sequence (P06731 35-702): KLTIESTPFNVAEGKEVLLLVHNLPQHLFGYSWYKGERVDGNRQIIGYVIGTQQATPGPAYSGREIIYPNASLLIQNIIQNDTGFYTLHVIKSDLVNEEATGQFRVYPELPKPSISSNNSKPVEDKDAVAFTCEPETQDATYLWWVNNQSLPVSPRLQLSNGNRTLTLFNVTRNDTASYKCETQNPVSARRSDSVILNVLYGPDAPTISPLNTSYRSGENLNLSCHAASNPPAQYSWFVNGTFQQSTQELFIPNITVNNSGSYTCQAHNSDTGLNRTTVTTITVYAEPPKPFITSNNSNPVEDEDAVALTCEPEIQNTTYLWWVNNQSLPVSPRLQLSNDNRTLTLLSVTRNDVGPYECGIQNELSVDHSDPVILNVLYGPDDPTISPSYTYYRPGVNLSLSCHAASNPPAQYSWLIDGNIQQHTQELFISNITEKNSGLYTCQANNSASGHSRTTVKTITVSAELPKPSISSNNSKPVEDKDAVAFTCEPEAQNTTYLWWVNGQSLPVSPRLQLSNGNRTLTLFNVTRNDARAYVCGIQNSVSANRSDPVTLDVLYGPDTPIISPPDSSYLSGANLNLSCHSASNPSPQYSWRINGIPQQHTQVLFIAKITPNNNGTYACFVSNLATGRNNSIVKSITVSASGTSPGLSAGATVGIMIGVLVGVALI
# TRAP1 = target: T3, TRAP1 (Homo sapiens, UniProt Q12931); experiment: Surface plasmon resonance (Biacore); type: binding; parameters: purchased Abcam ab123775; conditions: TRAP1, SPR
# T3 sequence (Q12931 60-704): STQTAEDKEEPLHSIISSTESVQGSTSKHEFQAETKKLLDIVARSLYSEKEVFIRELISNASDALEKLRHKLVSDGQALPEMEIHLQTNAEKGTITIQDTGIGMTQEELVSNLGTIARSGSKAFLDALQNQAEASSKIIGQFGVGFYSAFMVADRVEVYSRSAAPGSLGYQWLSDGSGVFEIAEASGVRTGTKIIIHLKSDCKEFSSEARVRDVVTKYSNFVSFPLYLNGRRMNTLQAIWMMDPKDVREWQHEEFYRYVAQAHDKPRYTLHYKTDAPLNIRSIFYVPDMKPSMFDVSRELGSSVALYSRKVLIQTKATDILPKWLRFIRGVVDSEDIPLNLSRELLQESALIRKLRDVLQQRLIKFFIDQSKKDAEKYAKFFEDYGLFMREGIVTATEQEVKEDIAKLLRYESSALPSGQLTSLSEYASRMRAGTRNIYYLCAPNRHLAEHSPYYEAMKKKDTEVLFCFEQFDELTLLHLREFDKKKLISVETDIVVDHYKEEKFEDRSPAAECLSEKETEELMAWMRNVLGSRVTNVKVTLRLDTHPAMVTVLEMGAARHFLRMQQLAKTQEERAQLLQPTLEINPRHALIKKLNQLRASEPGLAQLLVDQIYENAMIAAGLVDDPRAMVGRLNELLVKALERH
# Protocol: To confirm the molecular binding of the targeted protein, Surface Plasmon Resonance (SPR) was performed with a Biacore 3000. TRAP1 recombinant protein (Abcam, ab123775) or human Hsp90 recombinant protein (HSP90AB1, Abcam, ab131923) were immobilized on a CM5 sensor chip surface using the amine coupling method according to the manufacturer’s instruction (Biacore, GE Healthcare). CVM-1125 was dissolved in sodium carbonate buffer (pH 9) and then diluted in HBS-EDTA-P20 buffer to desired concentrations (five serial dilutions from 1 × 10^−5 to 1 × 10^−8 M) and injected at flow 30 μL/min with KINJET 60/180 %pos, analyte position, volume, and dissociation time. Specific binding was calculated using BiaEval 3 software.
# T-47D = experiment: NCI 60 cytotoxicity screening; type: cell-based; conditions: Homo sapiens, T47D, Breast
# Integrin beta-2 (CD18), sequence (P05107 23-769): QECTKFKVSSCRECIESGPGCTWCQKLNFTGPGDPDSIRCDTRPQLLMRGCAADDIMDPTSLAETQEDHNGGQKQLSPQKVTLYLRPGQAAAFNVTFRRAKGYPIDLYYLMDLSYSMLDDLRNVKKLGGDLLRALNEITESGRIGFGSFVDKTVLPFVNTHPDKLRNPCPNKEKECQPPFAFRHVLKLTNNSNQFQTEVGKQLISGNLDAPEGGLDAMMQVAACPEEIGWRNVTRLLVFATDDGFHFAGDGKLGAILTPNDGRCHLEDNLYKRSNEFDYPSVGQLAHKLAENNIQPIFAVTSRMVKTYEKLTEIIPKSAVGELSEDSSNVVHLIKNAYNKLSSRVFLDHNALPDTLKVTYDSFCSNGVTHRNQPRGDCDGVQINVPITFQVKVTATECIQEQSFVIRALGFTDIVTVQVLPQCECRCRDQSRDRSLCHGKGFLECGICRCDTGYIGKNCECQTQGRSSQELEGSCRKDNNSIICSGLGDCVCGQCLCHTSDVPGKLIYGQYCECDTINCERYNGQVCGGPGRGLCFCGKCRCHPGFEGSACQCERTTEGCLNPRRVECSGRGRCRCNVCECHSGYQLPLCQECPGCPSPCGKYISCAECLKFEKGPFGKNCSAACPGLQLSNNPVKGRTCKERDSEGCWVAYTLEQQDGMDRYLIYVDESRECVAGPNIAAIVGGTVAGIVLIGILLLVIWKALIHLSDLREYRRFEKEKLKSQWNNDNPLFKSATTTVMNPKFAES
structure (smiles),measurement,setting,value
COc1ccc2[nH]c(-c3cccc(F)c3)cc(=O)c2c1O [CVM-1125],GI50,HT29,29 nM
same,Association (ka),Catenin β-1,No interaction
same,Dissociation (kd),Catenin β-1,No interaction
same,KD (kd/ka),Catenin β-1,No interaction
same,Association (ka),GADD45GIP1,No interaction
same,Dissociation (kd),GADD45GIP1,No interaction
same,KD (kd/ka),GADD45GIP1,No interaction
same,Dissociation (kd),Integrin beta-2 (CD18),1.08e-05 s⁻¹
same,kon,Integrin beta-2 (CD18); read-out: Association (ka),14.4 M⁻¹ s⁻¹
same,Kd,Integrin beta-2 (CD18); read-out: KD (kd/ka),748 nM
same,GI50,PC-3,32.6 nM
same,Association (ka),CEACAM5,No interaction
same,Dissociation (kd),CEACAM5,No interaction
same,KD (kd/ka),CEACAM5,No interaction
same,kon,TRAP1; read-out: Association (ka),30200 M⁻¹ s⁻¹
same,Kd,TRAP1; read-out: KD (kd/ka),67 nM and 66.8 nM
same,GI50,T-47D,28 nM
